Source: patent US9134313B2, “Method of detecting colorectal cancer of stages 0 to I” (Tokyo Metropolitan Organization For Medical Research, priority 2003, dated 2015)

System: anti-DiAcSpm antibody Code No. NZW 2
Assay: Cross-reactivity of affinity-purified anti-DiAcSpm antibody with urinary DiAcSpm analogues
Type: binding, rabbit
Conditions: for Cross-reactivity (1)x(2) %: cross-reactivity multiplied by abundance in urine: interference on urinary DiAcSpm determination; for KiDiAcSpm/Ki"s"(%) (1): cross-reactivity of antibody NZW 2 with each polyamine, DiAcSpm = 100
Text: The antibody of the invention has one or both of the following properties: (i) its cross-reactivity with N^1-AcSpd (which is present in urine as a DiAcSpm analogue in an amount about 30-times greater than DiAcSpm) is 0.1% or less; (ii) total interference on the measurement results caused by its cross-reaction with DiAcSpm analogues present in urine is 5% or less. The numerical value mentioned in (i) above is a value showing the nature of the antibody. The numerical value mentioned in (ii) above is a value obtained by multiplying cross-reactivity itself by the abundance of these analogues in urine; this value can be an indicator showing how much interference these analogues would give actually on the quantitative determination of DiAcSpm.
Step-wise affinity purification was carried out to examine whether specific antibodies with sufficient purity applicable to a urinary DiAcSpm measuring system can be obtained. The affinity purification was carried out step-wise based on the method of Kawakita et al. (Hiramatsu, K. et al., J. Biochem., 124, 231-236 (1998)), using DiAcSpm column and DiSpd column prepared by derivatizing carboxy-Toyopearl with AcSpm and N8-AcSpd (FIG. 3).
Further, the total interference on the measurement results caused by the cross-reaction of this antibody with DiAcSpm analogues present in urine was 2.9%; thus, cross-reactivity of 5% or less was achieved (FIG. 4, Table 3).

Row | Compound | Cross-reactivity (1)x(2) % | KiDiAcSpm/Ki"s"(%) (1) | KiDiAcSpm/Ki"s"(%) (1) (listed as N^1-AcSpd)
1 | CC(=O)NCCCNCCCCNCCCN [AcSpm, monoacetylspermine] | 0.131% | 0.418% | –
2 | CC(=O)NCCCCNCCCNC(C)=O [DiAcSpd, N^1,N^8-diacetylspermidine] | 0.094% | 0.032% | –
3 | CC(=O)NCCCNCCCCNCCCNC(C)=O [DiAcSpm, N^1,N^12-diacetylspermine] | 100% | 100% | –
4 | CC(=O)NCCCNCCCCN [N1-AcSpd, N^1-Ac-Spermidine] | 2.65% | 0.100% | ≤ 0.1%
5 | CC(=O)NCCCCNCCCN [N8-AcSpd, N^8-Ac-Spermidine] | 0.024% | 0.001% | –
